# Results published in PubChem BioAssay AID2060494 (Molecular Pharmacology Branch, DTP, NCI, 2025).
# Several values for one entry are separate records, joined by “and”; a condition that tells them apart may be missing. Equal entries are not always repeated.
# System: 435261-313-R-J1-PDC complex spheroid viability
# Test: Anticancer human tumor 435261-313-R-J1-PDC patient-derived colon adenocarcinoma cell line growth inhibition [GQUAD]
# Conditions: for viability, T/C: stronger effect = lower value
# Source text: DNA G-quadruplex Stabilizer Agents in Combinations in Complex Spheroids
# A high-throughput screen of multi-cell type tumor spheroids was designed to identify active combinations of DNA G-quadruplex stabilizer agents and targeted small molecules. Complex spheroids include a stromal component modeled by human endothelial cells (HUVEC) and fibroblasts modeled by human mesenchymal stem cells (MSCs). The concentration ranges selected for each drug and investigational agent were based upon clinically achievable concentrations if the clinical Cmax of the agent was known.
# Compounds. The drugs and investigational agents: pidnarulex (CX-5461; NSC782164), APTO-253 (NSC789042), BRACO-19 (NSC847499), peposertib (NSC802822), ceralasertib (NSC780249), elimusertib (NSC800525), camonsertib (NSC841442), AZD-1390 (NSC803789), olaparib (NSC753686), talazoparib (NSC767125), ART-558 (NSC835418), sotorasib (NSC818433), MRTX-1133 (NSC836407), SN-38 (NSC673596), topotecan (NSC609699), etoposide (NSC141540), doxorubicin (NSC123127), gemcitabine (NSC613327), 5-fluorouracil (NSC19893), paclitaxel (NSC125973), vemurafenib (NSC761431), panobinostat (NSC761190), R-306465 (JNJ-16241199; NSC773264), adavosertib (NSC754352), TP-3654 (NSC805149), carboplatin (NSC241240), KSQ-4279 (NSC840948), and staurosporine (NSC755774) were obtained from the National Cancer Institute (NCI) Developmental Therapeutics Program Chemical Repository (34). The FDA-approved anticancer drug set is available from the NCI Developmental Therapeutics Program. […] The stock solutions were prepared in dimethyl sulfoxide (DMSO, Sigma-Aldrich, St. Louis, MO, cat. D2650) at 800-fold the tested concentration and stored at -70 degrees C prior to their use. All drugs and investigational agents were tested over a range starting from a high concentration at or near the clinical Cmax and decreasing in half-log increments. If the clinical Cmax for an agent had not been determined, the highest concentration tested was 10 microM.
# 2.3 Cell Culture. All cells were maintained in an incubator at 37 degrees C and 5% CO2 with 95% humidity. The PDC lines were cultured according to standard operating procedures established by the NCI PDMR. All PDCs were thawed and cultured in Matrigel-coated flasks prepared with a working solution of 1X Ham's F-12 nutrient mix, without supplementation (Invitrogen, cat. 11765054), 100 U/mL penicillin-streptomycin (Invitrogen, cat. 15140122), and 2.5% Matrigel (Corning Inc., cat. 354248) for the first three passages. The 857933-349-R-J2-PDC line was cultured in 6C/Colon 1B media, which includes advanced DMEM/F-12 (Thermo Fisher Scientific, cat. 12634028), 10 mM HEPES (Thermo Fisher Scientific, cat. 15630080), 1X GlutaMAX supplement (Thermo Fisher Scientific, cat. 35050061), 0.1 mg/mL primocin (InvivoGen, cat. ant-pm-2), 10% defined fetal bovine serum, heat inactivated (HyClone Laboratories Inc., cat. SH30070.03HI), 50% L-WRN conditioned media (ATCC, cat. CRL-3276), 1.25 mM N-Acetyl-L-cysteine (Sigma-Aldrich, cat. A9165), 10 mM nicotinamide (Sigma-Aldrich, cat. N0636), 1X B-27 supplement (Thermo Fisher Scientific, cat. 17504044), 1X N-2 supplement (Thermo Fisher Scientific, cat. 17502048), 10 microM Y-27632 dihydrochloride (Tocris Bioscience, cat. 1254), and 50 ng/mL human EGF recombinant protein (Thermo Fisher Scientific, cat. PHG0311). The 485176-168-R4-J1-PDC line was cultured in Panc media, which includes all 6C/Colon 1B media components plus 100 ng/mL human FGF-10 (Thermo Fisher Scientific, cat. 100-26), 500 nM SB-431542 (Selleckchem, cat. S1067), and gastrin (Tocris, cat. 3006).
# […]
# [1] = curve of first compound, second compound 0.0316 µM
# [2] = curve of first compound, second compound 0.1 µM
# [3] = curve of first compound, second compound 0.316 µM
# [4] = curve of first compound, second compound 1 µM
# [5] = curve of first compound, second compound 3.16 µM
# [6] = curve of first compound, second compound 10 µM
# [7] = second compound 0.0316 µM, first compound 0.0316 µM
# [8] = second compound 0.0316 µM, first compound 0.316 µM
# [9] = second compound 0.1 µM, first compound 0.0316 µM
# [10] = second compound 0.1 µM, first compound 0.316 µM
# [11] = second compound 0.316 µM, first compound 0.0316 µM
# [12] = second compound 0.316 µM, first compound 0.316 µM
# [13] = second compound 1 µM, first compound 0.0316 µM
# [14] = second compound 1 µM, first compound 0.316 µM
# [15] = second compound 3.16 µM, first compound 0.0316 µM
# [16] = second compound 3.16 µM, first compound 0.316 µM
# [17] = second compound 10 µM, first compound 0.0316 µM
# [18] = second compound 10 µM, first compound 0.316 µM
# 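Note: spheroids exposed to the agents for seven days before readout.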
# 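Throughout, for viability, T/C: percent of vehicle control viability with DMSO wells as 100%.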
smiles,measurement,setting,value
Cn1ncnc1[C@H]1c2n[nH]c(=O)c3cc(F)cc(c23)N[C@@H]1c1ccc(F)cc1,"viability, T/C",compound 0.000999 µM,129% and 93.2% and 109%
same,"viability, T/C",compound 0.00316 µM,91% and 87% and 106%
same,"viability, T/C",compound 0.00999 µM,114% and 98% and 124%
same,"viability, T/C",compound 0.0316 µM,71.5% and 116% and 74.2%
same,"viability, T/C",compound 0.0999 µM,101% and 65.9% and 81.1%
same,"viability, T/C",compound 0.316 µM,81.1% and 72% and 81.4%
same,IC50,curve of compound,> 316 nM
CC[C@@]1(O)C(=O)OCc2c1cc1n(c2=O)Cc2cc3c(CN(C)C)c(O)ccc3nc2-1 + Cc1[nH]c2ccc(F)cc2c1-c1nc2c3cccnc3c3ncccc3c2[nH]1,IC50,[1],> 316 nM
same,IC50,[2],> 316 nM
same,IC50,[3],> 316 nM
same,IC50,[4],> 316 nM
same,IC50,[5],< 0.999 nM
same,IC50,[6],< 0.999 nM
same,"viability, T/C","second compound 0.0316 µM, first compound 0.000999 µM",90.1%
same,"viability, T/C","second compound 0.0316 µM, first compound 0.00316 µM",76.8%
same,"viability, T/C","second compound 0.0316 µM, first compound 0.00999 µM",84.8%
same,"viability, T/C",[7],74.6%
same,"viability, T/C","second compound 0.0316 µM, first compound 0.0999 µM",72.9%
same,"viability, T/C",[8],69%
same,"viability, T/C","second compound 0.1 µM, first compound 0.000999 µM",106%
same,"viability, T/C","second compound 0.1 µM, first compound 0.00316 µM",74.9%
same,"viability, T/C","second compound 0.1 µM, first compound 0.00999 µM",108%
same,"viability, T/C",[9],73.6%
same,"viability, T/C","second compound 0.1 µM, first compound 0.0999 µM",72.8%
same,"viability, T/C",[10],59.8%
same,"viability, T/C","second compound 0.316 µM, first compound 0.000999 µM",89.3%
same,"viability, T/C","second compound 0.316 µM, first compound 0.00316 µM",80%
same,"viability, T/C","second compound 0.316 µM, first compound 0.00999 µM",114%
same,"viability, T/C",[11],59.3%
same,"viability, T/C","second compound 0.316 µM, first compound 0.0999 µM",58.7%
same,"viability, T/C",[12],52.6%
same,"viability, T/C","second compound 1 µM, first compound 0.000999 µM",41.9%
same,"viability, T/C","second compound 1 µM, first compound 0.00316 µM",67.6%
same,"viability, T/C","second compound 1 µM, first compound 0.00999 µM",67.9%
same,"viability, T/C",[13],64.5%
same,"viability, T/C","second compound 1 µM, first compound 0.0999 µM",54.2%
same,"viability, T/C",[14],47.1%
same,"viability, T/C","second compound 3.16 µM, first compound 0.000999 µM",41.4%
same,"viability, T/C","second compound 3.16 µM, first compound 0.00316 µM",34.2%
same,"viability, T/C","second compound 3.16 µM, first compound 0.00999 µM",37.4%
same,"viability, T/C",[15],28.2%
same,"viability, T/C","second compound 3.16 µM, first compound 0.0999 µM",23.9%
same,"viability, T/C",[16],33.8%
same,"viability, T/C","second compound 10 µM, first compound 0.000999 µM",19.3%
same,"viability, T/C","second compound 10 µM, first compound 0.00316 µM",25.4%
same,"viability, T/C","second compound 10 µM, first compound 0.00999 µM",18.3%
same,"viability, T/C",[17],24.9%
same,"viability, T/C","second compound 10 µM, first compound 0.0999 µM",20.7%
same,"viability, T/C",[18],17.9%
O=C(c1cc(Cc2n[nH]c(=O)c3ccccc23)ccc1F)N1CCN(C(=O)C2CC2)CC1 + CN(C)c1ccc(Nc2c3ccc(NC(=O)CCN4CCCC4)cc3nc3cc(NC(=O)CCN4CCCC4)ccc23)cc1,IC50,[1],> 10000 nM
same,IC50,[2],> 10000 nM
same,IC50,[3],> 10000 nM
same,IC50,[4],> 10000 nM
same,IC50,[5],> 10000 nM
same,IC50,[6],< 31.6 nM
same,"viability, T/C",[7],96%
same,"viability, T/C","second compound 0.0316 µM, first compound 0.1 µM",133%
same,"viability, T/C",[8],84.8%
same,"viability, T/C","second compound 0.0316 µM, first compound 1 µM",80.8%
same,"viability, T/C","second compound 0.0316 µM, first compound 3.16 µM",123%
same,"viability, T/C","second compound 0.0316 µM, first compound 10 µM",89.4%
same,"viability, T/C",[9],101%
same,"viability, T/C","second compound 0.1 µM, first compound 0.1 µM",83.7%
same,"viability, T/C",[10],118%
same,"viability, T/C","second compound 0.1 µM, first compound 1 µM",102%
same,"viability, T/C","second compound 0.1 µM, first compound 3.16 µM",90%
same,"viability, T/C","second compound 0.1 µM, first compound 10 µM",81.9%
same,"viability, T/C",[11],109%
same,"viability, T/C","second compound 0.316 µM, first compound 0.1 µM",92.5%
same,"viability, T/C",[12],97.8%
same,"viability, T/C","second compound 0.316 µM, first compound 1 µM",84.2%
same,"viability, T/C","second compound 0.316 µM, first compound 3.16 µM",85.2%
same,"viability, T/C","second compound 0.316 µM, first compound 10 µM",69.9%
same,"viability, T/C",[13],85%
same,"viability, T/C","second compound 1 µM, first compound 0.1 µM",78%
same,"viability, T/C",[14],70.1%
same,"viability, T/C","second compound 1 µM, first compound 1 µM",70%
same,"viability, T/C","second compound 1 µM, first compound 3.16 µM",95.8%
same,"viability, T/C","second compound 1 µM, first compound 10 µM",69.2%
same,"viability, T/C",[15],80.5%
same,"viability, T/C","second compound 3.16 µM, first compound 0.1 µM",53.2%
same,"viability, T/C",[16],66.8%
same,"viability, T/C","second compound 3.16 µM, first compound 1 µM",60%
same,"viability, T/C","second compound 3.16 µM, first compound 3.16 µM",77.4%
same,"viability, T/C","second compound 3.16 µM, first compound 10 µM",57.6%
same,"viability, T/C",[17],37.3%
same,"viability, T/C","second compound 10 µM, first compound 0.1 µM",46.2%
same,"viability, T/C",[18],31%
same,"viability, T/C","second compound 10 µM, first compound 1 µM",49.3%
same,"viability, T/C","second compound 10 µM, first compound 3.16 µM",36.4%
same,"viability, T/C","second compound 10 µM, first compound 10 µM",32.9%
